Drawing on patent US11173145B2, “Compounds useful as inhibitors of indoleamine 2,3-dioxygenase and/or tryptophan dioxygenase” (Board of Regents, The University of Texas System, priority 2017, dated 2021), this text covers IC50 for 28 compounds.

pIC50: −log10 of the molar value.

In this assay the target is T1, IDO1 (Homo sapiens, UniProt P14902).
T1 construct: endogenous in cells; host or cells: HeLa cells (ATCC), IFNgamma-induced
T1 sequence (P14902 whole entry): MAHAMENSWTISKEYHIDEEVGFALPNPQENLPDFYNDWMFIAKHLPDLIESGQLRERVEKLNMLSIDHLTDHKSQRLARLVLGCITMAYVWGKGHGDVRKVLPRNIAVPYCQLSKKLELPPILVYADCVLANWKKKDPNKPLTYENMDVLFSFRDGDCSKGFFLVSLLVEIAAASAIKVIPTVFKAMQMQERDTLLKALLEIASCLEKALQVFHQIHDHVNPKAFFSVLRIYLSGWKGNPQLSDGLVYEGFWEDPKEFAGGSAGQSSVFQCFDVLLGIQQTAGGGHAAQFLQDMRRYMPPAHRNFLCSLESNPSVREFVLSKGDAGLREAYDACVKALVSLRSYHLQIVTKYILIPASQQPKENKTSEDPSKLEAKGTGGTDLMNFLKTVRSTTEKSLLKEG
As to the kind of experiment: IDO1 cell-based assay (HeLa cells, IFNgamma-induced, N-formylkynurenine/L-tryptophan by RFMS). The conditions noted are these: 10 ng/mL IFNgamma, 24 hours. The protocol: HeLa cells were obtained from the American Type Culture Collection (ATCC) and maintained in DMEM media containing 10% FBS. Cells (7,000/well) were seeded onto a 384 well plate in 50 μL of media and incubated at 37° C., 5% CO2 overnight. Cell media was aspirated, fresh media containing 10 ng/mL IFNgamma was added, and cells were incubated in absence or presence of various concentrations of test compound (final 0.5% DMSO) for 24 hours. Aliquots of the cell conditioned media were removed from the cell plate, and mixed with an equal volume of 200 mM ZnSO4 to precipitate media containing proteins. Two volumes of acetonitrile were added, mixed, and samples were then centrifuged at 2250G for 20 minutes at 4° C. Aliquots of the supernatant were diluted 1:10 in 0.1% formic acid containing 3 μM of deuterated Tryptophan as an internal standard.
Samples were analyzed via RFMS to quantify N-Formyl Kynurenine (AUC) and L-tryptophan (AUC). A C18 cartridge was used with mobile phases of 0.1% Formic Acid and 80% ACN/0.1% Formic Acid under isocratic conditions. Dose-response curves were analyzed using IC50 regression curve fitting (GeneData Screener). […] Cell viability was also assessed using the Cell Titer Glo Kit (Promega) following manufacturer recommendation.
Regarding `CCC(NC(=O)c1ccc(OC)nc1)[C@H]1[C@@H]2C[C@@H](n3cnc4ccc(F)cc4c3=O)C[C@@H]21` (stereo partly drawn) [Compound 74, N-(1-((1R,3s,5S,6r)-3-(6-fluoro-4-oxoquinazolin-3(4H)-yl)bicyclo[3.1.0]hexan-6-yl)propyl)-6-methoxynicotinamide], the pIC50 is 5.70 to 6.70.

In turn, `CC(NC(=O)c1ccc(Cl)cc1)[C@H]1[C@@H]2C[C@@H](n3cnc4ccc(F)cc4c3=O)C[C@@H]21` (stereo partly drawn) [Compound 63, 4-chloro-N-(1-((1R,3s,5S,6r)-3-(6-fluoro-4-oxoquinazolin-3(4H)-yl)bicyclo[3.1.0]hexan-6-yl)ethyl)benzamide] showed a pIC50 of over 6.70.

As for `CCC(NC(=O)c1ccc(C#N)cc1)[C@H]1[C@@H]2C[C@@H](Oc3cnnc4ccccc34)C[C@@H]21` (stereo partly drawn) [Compound 80, N-(1-((1R,3s,5S,6r)-3-(cinnolin-4-yloxy)bicyclo[3.1.0]hexan-6-yl)propyl)-4-cyanobenzamide], the pIC50 was over 6.70.

Regarding `CC[C@@H](NC(=O)NC1CC1)[C@H]1[C@@H]2C[C@@H](n3cnc4cc(F)c(F)cc43)C[C@@H]21` [Compound 357, 1-cyclopropyl-3-((R)-1-((1R,3S,5S,6r)-3-(5,6-difluoro-1H-benzo[d]imidazol-1-yl)bicyclo[3.1.0]hexan-6-yl)propyl)urea], the pIC50 was 5.70 to 6.70.

In turn, `O=C(NC1C2CC(Oc3cc(C(F)(F)F)nc4ccc(F)cc34)CC21)c1ccc(Cl)cc1` (stereo not shown) [Compound 25, 4-chloro-N-(3-((6-fluoro-2-(trifluoromethyl)quinolin-4-yl)oxy)bicyclo[3.1.0]hexan-6-yl)benzamide] had a pIC50 of under 5.30.

`CCC(NC(=O)c1ccc(Cl)cc1)[C@H]1[C@@H]2C[C@@H](Oc3cccc(C)n3)C[C@@H]21` (stereo partly drawn) [Compound 40, 4-chloro-N-(1-((1R,3s,5S,6r)-3-((6-methylpyridin-2-yl)oxy)bicyclo[3.1.0]hexan-6-yl)propyl)benzamide] had a pIC50 of over 6.70.

`CC[C@@H](NC(=O)c1ccc(Cl)cc1)[C@H]1[C@@H]2C[C@@H](n3cc(C4CC4)cn3)C[C@@H]21` [Compound 348, 4-chloro-N-((R)-1-((1R,3S,5S,6r)-3-(4-cyclopropyl-1H-pyrazol-1-yl)bicyclo[3.1.0]hexan-6-yl)propyl)benzamide] had a pIC50 of over 6.70.

On to `CCC(NC(=O)c1ccc(Cl)cc1)[C@H]1[C@@H]2C[C@@H](Nc3ncnc4ccc(F)cc34)C[C@@H]21` (stereo partly drawn) [Compound 123, 4-chloro-N-(1-((1R,3s,5S,6r)-3-((6-fluoroquinazolin-4-yl)amino)bicyclo[3.1.0]hexan-6-yl)propyl)benzamide], for which the pIC50 was over 6.70.

For the compound `CCOC(=O)C(C(=O)OCC)[C@@H]1C[C@@H]2[C@H](C1)[C@H]2[C@@H](CC)NC(=O)c1ccc(Cl)cc1` [Compound 290, diethyl 2-((1R,3S,5S,6r)-6-((R)-1-(4-chlorobenzamido)propyl)bicyclo[3.1.0]hexan-3-yl)malonate], the pIC50 was over 6.70.

In the case of `CC[C@@H](NC(=O)c1ccc(Cl)cc1)[C@H]1[C@@H]2C[C@@H](n3cccn3)C[C@@H]21` [Compound 324, N-((R)-1-((1R,3S,5S,6r)-3-(1H-pyrazol-1-yl)bicyclo[3.1.0]hexan-6-yl)propyl)-4-chlorobenzamide], the pIC50 is over 6.70.

Compound `CC[C@@H](NC(=O)c1ccc(Cl)cc1)[C@H]1[C@@H]2C[C@@H](n3cc(C(C)(C)O)nn3)C[C@@H]21` [Compound 142, 4-chloro-N-((S)-1-((1R,3R,5S,6r)-3-(4-(2-hydroxypropan-2-yl)-1H-1,2,3-triazol-1-yl)bicyclo[3.1.0]hexan-6-yl)propyl)benzamide] had a negative-log IC50 (pIC50) of under 5.30.

Regarding `CC[C@H](NC(=O)c1ccc(Cl)cc1)[C@H]1[C@@H]2C[C@@H](Oc3cnnc4ccccc34)C[C@@H]21` [Compound 103, 4-chloro-N-((S)-1-((1R,3R,5S,6r)-3-(cinnolin-4-yloxy)bicyclo[3.1.0]hexan-6-yl)propyl)benzamide], the pIC50 is over 6.70.

With `CCC(NC(=O)c1ccc(Cl)cc1)[C@H]1[C@@H]2C[C@@H](n3cc(C(C)(C)O)nn3)C[C@@H]21` (stereo partly drawn) [Compound 141, 4-chloro-N-((R)-1-((1R,3S,5S,6r)-3-(4-(2-hydroxypropan-2-yl)-1H-1,2,3-triazol-1-yl)bicyclo[3.1.0]hexan-6-yl)propyl)benzamide], the pIC50 is 5.70 to 6.70.

As for `CC[C@@H](NC(=O)c1ccc(Cl)cc1)[C@H]1[C@@H]2C[C@@H](c3cnn(C4CC4)c3)C[C@@H]21` [Compound 292, 4-chloro-N—((R)-1-((1R,3S,5S, 6r)-3-(1-cyclopropyl-1H-pyrazol-4-yl)bicyclo[3.1.0]hexan-6-yl)propyl)benzamide], the pIC50 was over 6.70.

`CCC(NC(=O)c1ccc(Cl)cc1)[C@H]1[C@@H]2C[C@@H](N3C(=O)C(F)(F)c4ccccc43)C[C@@H]21` (stereo partly drawn) [Compound 119, 4-chloro-N-(1-((1R,3s,5S,6r)-3-(3,3-difluoro-2-oxoindolin-1-yl)bicyclo[3.1.0]hexan-6-yl)propyl)benzamide] had a pIC50 of over 6.70.

The compound `O=C(Cc1ccc(Cl)cc1)N[C@H]1[C@@H]2C[C@@H](Oc3ncnc4ccc(F)cc34)C[C@@H]21` [Compound 61, 2-(4-chlorophenyl)-N-((1R,3s,5S,6r)-3-((6-fluoroquinazolin-4-yl)oxy)bicyclo[3.1.0]hexan-6-yl)acetamide] had a pIC50 of over 6.70.

Compound `CCC(NC(=O)c1ccc(Cl)cc1)[C@H]1[C@@H]2C[C@@H](NC(=O)c3ccc4ccccc4n3)C[C@@H]21` (stereo partly drawn) [Compound 118, N-((1R,3s,5S,6r)-6-(1-(4-chlorobenzamido)propyl)bicyclo[3.1.0]hexan-3-yl)quinoline-2-carboxamide] showed a pIC50 of over 6.70.

On to `CCC(NC(=O)c1ccc(Cl)cc1)[C@H]1[C@@H]2C[C@@H](Oc3ccccc3CC(N)=O)C[C@@H]21` (stereo partly drawn) [Compound 45, N-(1-((1R,3s,5S,6r)-3-(2-(2-amino-2-oxoethyl)phenoxy)bicyclo[3.1.0]hexan-6-yl)propyl)-4-chlorobenzamide], for which the pIC50 was over 6.70.

The compound `CC[C@@H](NC(=O)c1ccc(Cl)cc1)[C@H]1[C@@H]2C[C@@H](n3cc(C(F)(F)F)cn3)C[C@@H]21` [Compound 332, 4-chloro-N-((R)-1-((1R,3S,5S,6r)-3-(4-(trifluoromethyl)-1H-pyrazol-1-yl)bicyclo[3.1.0]hexan-6-yl)propyl)benzamide] gave a pIC50 of over 6.70.

The compound `CC[C@@H](NC(=O)c1ccc(Cl)cc1)[C@H]1[C@@H]2C[C@@H](Nc3ncnc4ccc(F)cc34)C[C@@H]21` [Compound 336, 4-chloro-N-((R)-1-((1R,3S,5S,6r)-3-((6-fluoroquinazolin-4-yl)amino)bicyclo[3.1.0]hexan-6-yl)propyl)benzamide] gave a negative-log IC50 (pIC50) of over 6.70.

`COCC(NC(=O)c1ccc(Cl)cc1)[C@H]1[C@@H]2C[C@@H](n3cc(C4CC4)nn3)C[C@@H]21` (stereo partly drawn) [Compound 173, 4-chloro-N-(1-((1R,3s,5S,6r)-3-(4-cyclopropyl-1H-1,2,3-triazol-1-yl)bicyclo[3.1.0]hexan-6-yl)-2-methoxyethyl)benzamide] gave a pIC50 of over 6.70.

With `Cc1ccc(C(=O)NC[C@@H]2[C@H]3C[C@H](n4cnc5cc(F)c(F)cc54)C[C@@H]23)cc1` [Compound 322, N-(((1R,3s,5S,6r)-3-(5,6-difluoro-1H-benzo[d]imidazol-1-yl)bicyclo[3.1.0]hexan-6-yl)methyl)-4-methylbenzamide], the pIC50 was over 6.70.

In turn, `CCC(NC(=O)c1ccc(Cl)cn1)C1C2CC(n3cnc4ccc(F)cc4c3=O)CC21` [Compound 75, 5-chloro-N-(1-((1R,3s,5S,6r)-3-(6-fluoro-4-oxoquinazolin-3(4H)-yl)bicyclo[3.1.0]hexan-6-yl)propyl)picolinamide] showed a pIC50 of over 6.70.

`CCC(NC(=O)c1ccc(Cl)cc1)C1C2CC(Oc3ncnc4cccc(F)c34)CC21` [Compound 37, 4-chloro-N-(1-((1R,3s,5S,6r)-3-((5-fluoroquinazolin-4-yl)oxy)bicyclo[3.1.0]hexan-6-yl)propyl)benzamide] gave a pIC50 of over 6.70.

`CCC(NC(=O)c1ccc(Cl)cc1)[C@H]1[C@@H]2C[C@@H](Oc3cc(C)nc4ccc(F)cc34)C[C@@H]21` (stereo partly drawn) [Compound 20, 4-chloro-N-(1-((1R,3s,5S,6r)-3-((6-fluoro-2-methylquinolin-4-yl)oxy)bicyclo[3.1.0]hexan-6-yl)propyl)benzamide] had a negative logarithm of the IC50 (pIC50) of over 6.70.

The compound `CCOC(=O)CC(NC(=O)c1ccc(Cl)cc1)[C@H]1[C@@H]2C[C@@H](Oc3ncnc4ccc(F)cc34)C[C@@H]21` (stereo partly drawn) [Compound 134, ethyl 3-(4-chlorobenzamido)-3-((1R,3s,5S,6r)-3-((6-fluoroquinazolin-4-yl)oxy)bicyclo[3.1.0]hexan-6-yl)propanoate] showed a pIC50 of over 6.70.

For `CCC(NC(=O)c1ccc(Cl)cc1)[C@H]1[C@@H]2C[C@@H](Oc3ncncc3F)C[C@@H]21` (stereo partly drawn) [Compound 54, 4-chloro-N-(1-((1R,3s,5S,6r)-3-((5-fluoropyrimidin-4-yl)oxy)bicyclo[3.1.0]hexan-6-yl)propyl)benzamide], the pIC50 was over 6.70.

Turning to `CCC(NC(=O)c1ccc(C#N)cn1)C1C2CC(n3cnc4ccc(F)cc4c3=O)CC21` [Compound 76, 5-cyano-N-(1-((1R,3s,5S,6r)-3-(6-fluoro-4-oxoquinazolin-3(4H)-yl)bicyclo[3.1.0]hexan-6-yl)propyl)picolinamide], the pIC50 is 5.70 to 6.70.

For orientation: pIC50 means the IC50 on a negative log10 scale, so that one unit is a factor of ten. Read a high pIC50 as a small IC50.
